Assay results published in patent EP1510211A1, “Pharmaceutical composition comprising N-retinyl-N-retinylidene Ethanolamine (A2E), isoforms of A2E or derivatives thereof” (Lynkeus Biotech GmbH, priority 2003, dated 2005).

What was measured:
MDCK-F1 cells = experiment: Apoptosis by Cell Death ELISA Plus Kit in MDCK-F1 cells; type: cell-based, canine
Procedure: (§1) RPE, ARPE-19, and MDCK-F1 cells are exposed to both PG (0, 10, 50 µg/ml) and A2E (0, 15 or 20 µM) for 4 hrs. […] RPE, ARPE-19, and MDCK-F1 cells are exposed to both PG (0, 10, 50 µg/ml) and iso-A2E (0, 15 or 20 µM) under the influence of light for 4 hrs. Then they are washed 3 times with PBS and the apoptosis is determined by Cell Death ELISA Plus Kit (Roche, Mannheim, Germany)
(§2) As an example, the apoptotic effect of A2E on porcine primary retinal pigment epithelial cells (RPE), and the cell lines ARPE-19 and MDCK-F1 cells is analyzed. • Example 1 describes the apoptotic effect of A2E on RPE, ARPE-19, and MDCK-F1 cells. The cells are exposed to 0, 15 and 30 µM of A2E for 2, 4, 6 and 22 hrs. […] Then they are washed 3 times with PBS and the apoptosis is determined by Cell Death ELISA Plus Kit (Roche, Mannheim, Germany). • Example 3 describes the apoptotic effect of A2E on RPE, ARPE-19, and MDCK-F1 cells after application of iso-A2E and exposure in light (photo-isomerization). […] Then they are washed 3 times with PBS and the apoptosis is determined by Cell Death ELISA Plus Kit (Roche, Mannheim, Germany) (see figure 4).
(§3) RPE and ARPE-19 cells: Primary porcine retinal pigment epithelial cells were isolated as previously described. […] Detection of apoptosis: Apoptosis was detected by Cell Death ELISA Plus Kit (Roche, Mannheim, Germany). […]

[1] = system: porcine primary retinal pigment epithelial cells (RPE); experiment: Apoptosis by Cell Death ELISA Plus Kit in primary RPE cells; type: cell-based
Procedure: as §1, §2, §3

ARPE-19 cells = experiment: Apoptosis by Cell Death ELISA Plus Kit in ARPE-19 cells; type: cell-based, human
Procedure: as §1, §2, §3

[2] = PG (0, 10, 50 µg/ml) together with A2E (0, 15 or 20 µM) for 4 hrs, Figure 3
[3] = PG (0, 10, 50 µg/ml) together with iso-A2E (0, 15 or 20 µM) under the influence of light for 4 hrs, Figure 4

L-A-Phosphatidyl-DL-Glycerol sodium [PG]
protective effect: protective effect regarding the apoptotic effect of A2E (MDCK-F1 cells; [2]) | protective effect regarding the apoptotic effect of photo-isomerization of iso-A2E (MDCK-F1 cells; [3]) | protective effect regarding the apoptotic effect of A2E [1, 2] | protective effect regarding the apoptotic effect of photo-isomerization of iso-A2E [1, 3] | protective effect regarding the apoptotic effect of A2E (ARPE-19 cells; [2]) | protective effect regarding the apoptotic effect of photo-isomerization of iso-A2E (ARPE-19 cells; [3])
